Data: patent publication US8592456B2 (4SC Discovery GmbH, priority 2011, dated 2013)
pIC50: −log10 of the molar value. Read-outs that look alike come from different tables or passages of the source.

System: PBMC (T cell proliferation)
Assay: T cell proliferation assay, PHA-stimulated human PBMC (BrdU ELISA)
Assay type: cell-based
Procedure: Cell proliferation was analysed using the BrdU based cell proliferation ELISA from Roche (Mannheim, Germany) according to the manufacturer's instructions.
T Cell Proliferation Assay
Peripheral blood mononuclear cells (PBMC) from healthy human donors were isolated by centrifugation over Ficoll-Hypaque (Sigma-Aldrich, Germany) according to manufacturer's instructions. Purified PBMC were washed twice with PBS and resuspended in RPMI1640 culture medium supplemented with 10% dialyzed heat inactivated fetal calf serum, 1.5 mM L-glutamine, 100 U penicillin/ml, and […] (all from PAN Biotech, Aidenbach, Germany). For stimulation, PBMC were seeded at 1×10^5 cells/well, activated with 2 μg/ml phytohaemagglutinin (PHA, Sigma) and incubated with the test compound. After 48 hours proliferation was measured using the BrdU based cell proliferation ELISA from Roche (Mannheim, Germany) according to the manual.

[1] = human PBMC, 2 μg/ml PHA, 48 hours, BrdU, read-out: D: IC50 (Tcell proliferation)

Row | SMILES | pIC50 [1] | further results
1 | O=C(c1c(-c2c(F)cccc2Cl)noc1-c1cnn(-c2ccccc2F)c1C(F)(F)F)N1CCN(Cc2cccc(Cl)c2)CC1 [Example 24, (3-(2-chloro-6-fluorophenyl)-5-(1-(2-fluorophenyl)-5-(trifluoromethyl)-1H-pyrazol-4-yl)isoxazol-4-yl)(4-(3-chlorobenzyl)piperazin-1-yl)methanone] | 6.00 to 7.00 | 
2 | COC(=O)c1c(-c2c(F)cccc2Cl)noc1-c1cnn(-c2cccc(C#N)c2)c1C(F)(F)F [Example 12, methyl 3-(2-chloro-6-fluorophenyl)-5-(1-(3-cyanophenyl)-5-(trifluoromethyl)-1H-pyrazol-4-yl)isoxazole-4-carboxylate] | 7.00 to 8.00 | 
3 | COC(=O)c1c(-c2c(F)cccc2Cl)noc1-c1cnn(-c2ccccn2)c1C(F)(F)F [Example 84, methyl 3-(2-chloro-6-fluorophenyl)-5-(1-(pyridin-2-yl)-5-(trifluoromethyl)-1H-pyrazol-4-yl)isoxazole-4-carboxylate] | > 8.00 | 
4 | O=C(O)c1c(-c2c(F)cccc2Cl)noc1-c1cnn(Cc2ccccc2F)c1C(F)(F)F [Example B-86, 3-(2-chloro-6-fluorophenyl)-5-(1-(2-fluorobenzyl)-5-(trifluoromethyl)-1H-pyrazol-4-yl)isoxazole-4-carboxylic acid] | 5.00 to 6.00 | 
5 | Nc1c(-c2c(F)cccc2Cl)noc1-c1cnn(-c2cccc(Cl)c2)c1C(F)(F)F [Example B-36, 3-(2-chloro-6-fluorophenyl)-5-(1-(3-chlorophenyl)-5-(trifluoromethyl)-1H-pyrazol-4-yl)isoxazol-4-amine] | 6.00 to 7.00 | 
6 | CCOC(=O)c1c(-c2c(Cl)cncc2Cl)noc1-c1cnn(-c2cccc(Cl)c2)c1C(F)(F)F [Example B-7, ethyl 5-(1-(3-chlorophenyl)-5-(trifluoromethyl)-1H-pyrazol-4-yl)-3-(3,5-dichloropyridin-4-yl)isoxazole-4-carboxylate] | 5.00 to 6.00 | 
7 | CCOC(=O)c1c(-c2c(F)cccc2Cl)noc1-c1cnn(CCN2CCOCC2)c1C(F)(F)F [Example B-97, ethyl 3-(2-chloro-6-fluorophenyl)-5-(1-(2-morpholinoethyl)-5-(trifluoromethyl)-1H-pyrazol-4-yl)isoxazole-4-carboxylate] | 5.00 to 6.00 | 
8 | CC(=O)Nc1cccc(-n2ncc(-c3onc(-c4c(F)cccc4Cl)c3-c3nnc(C)s3)c2C(F)(F)F)c1 [IB-12, N-(3-(4-(3-(2-chloro-6-fluorophenyl)-4-(5-methyl-1,3,4-thiadiazol-2-yl)isoxazol-5-yl)-5-(trifluoromethyl)-1H-pyrazol-1-yl)phenyl)acetamide] |  | pIC50 (Homo sapiens, 48 h, read-out: IC50 (Tcell proliferation)): 5.00 to 6.00
9 | CCOC(=O)c1c(-c2ccncc2F)noc1-c1cnn(-c2cccc(Cl)c2)c1C(F)(F)F [Example B-4, ethyl 5-(1-(3-chlorophenyl)-5-(trifluoromethyl)-1H-pyrazol-4-yl)-3-(3-fluoropyridin-4-yl)isoxazole-4-carboxylate] | 5.00 to 6.00 | 
10 | CCOC(=O)c1c(-c2c(Cl)cncc2Cl)noc1-c1cnn(-c2ccncc2)c1C(F)(F)F [Example B-10, ethyl 3-(3,5-dichloropyridin-4-yl)-5-(1-(pyridin-4-yl)-5-(trifluoromethyl)-1H-pyrazol-4-yl)isoxazole-4-carboxylate] | 6.00 to 7.00 | 
11 | CON(C)C(=O)c1c(-c2c(F)cccc2Cl)noc1-c1cnn(-c2cccc(F)c2)c1C(F)(F)F [Example 135, 3-(2-chloro-6-fluorophenyl)-5-(1-(3-fluorophenyl)-5-(trifluoromethyl)-1H-pyrazol-4-yl)-N-methoxy-N-methylisoxazole-4-carboxamide] | 6.00 to 7.00 | 
12 | CCOC(=O)c1c(-c2ccncc2F)noc1-c1cnn(-c2ccccc2Cl)c1C(F)(F)F [Example B-13, ethyl 5-(1-(2-chlorophenyl)-5-(trifluoromethyl)-1H-pyrazol-4-yl)-3-(3-fluoropyridin-4-yl)isoxazole-4-carboxylate] | 7.00 to 8.00 | 
13 | CON(C)C(=O)c1c(-c2c(F)cccc2Cl)noc1-c1cnn(-c2ccccc2Cl)c1C(F)(F)F [Example B-51, 3-(2-chloro-6-fluorophenyl)-5-(1-(2-chlorophenyl)-5-(trifluoromethyl)-1H-pyrazol-4-yl)-N-methoxy-N-methylisoxazole-4-carboxamide] | 5.00 to 6.00 | 
14 | CCOC(=O)c1c(-c2c(F)cccc2Cl)noc1-c1cnn(Cc2ccccc2F)c1C(F)(F)F [Example B-80, ethyl 3-(2-chloro-6-fluorophenyl)-5-(1-(2-fluorobenzyl)-5-(trifluoromethyl)-1H-pyrazol-4-yl)isoxazole-4-carboxylate] | 5.00 to 6.00 | 
15 | CC(C)OC(=O)c1c(-c2c(F)cccc2Cl)noc1-c1cnn(-c2cccc(Cl)c2)c1C(F)(F)F [Example B-31, isopropyl 3-(2-chloro-6-fluorophenyl)-5-(1-(3-chlorophenyl)-5-(trifluoromethyl)-1H-pyrazol-4-yl)isoxazole-4-carboxylate] | > 8.00 | 
16 | CC(C)=NNC(=O)c1c(-c2c(F)cccc2Cl)noc1-c1cnn(-c2cccc(F)c2)c1 [Example B-29, 3-(2-chloro-6-fluorophenyl)-5-(1-(3-fluorophenyl)-1H-pyrazol-4-yl)-N′-(propan-2-ylidene)isoxazole-4-carbohydrazide] | 5.00 to 6.00 | 
17 | O=C(O)c1c(-c2ccccc2F)noc1-c1cnn(-c2cccc(F)c2)c1C(F)(F)F [Example 91, 3-(2-fluorophenyl)-5-(1-(3-fluorophenyl)-5-(trifluoromethyl)-1H-pyrazol-4-yl)isoxazole-4-carboxylic acid] | 5.00 to 6.00 | 
18 | CC(C)OC(=O)c1c(-c2c(F)cccc2Cl)noc1-c1cnn(-c2cccc(S(N)(=O)=O)c2)c1C(F)(F)F [Example B-73, isopropyl 3-(2-chloro-6-fluorophenyl)-5-(1-(3-sulfamoylphenyl)-5-(trifluoromethyl)-1H-pyrazol-4-yl)isoxazole-4-carboxylate] | 5.00 to 6.00 | 
19 | CCOC(=O)c1c(-c2onc(-c3c(F)cccc3Cl)c2C(=O)OC)cnn1-c1ccc(Cl)cc1Cl [Example 6, methyl 3-(2-chloro-6-fluorophenyl)-5-(1-(2,4-dichlorophenyl)-5-(ethoxycarbonyl)-1H-pyrazol-4-yl)isoxazole-4-carboxylate] | 5.00 to 6.00 | 
20 | O=C(O)c1c(-c2ccccc2Cl)noc1-c1cnn(-c2cccc(Cl)c2)c1C(F)(F)F [Example B-42, 3-(2-chlorophenyl)-5-(1-(3-chlorophenyl)-5-(trifluoromethyl)-1H-pyrazol-4-yl)-isoxazole-4-carboxylic acid] | 5.00 to 6.00 | 
21 | COc1ccc(-c2noc(-c3cnn(-c4cccc(F)c4)c3C(F)(F)F)c2C(=O)O)cc1 [Example 108, 5-(1-(3-fluorophenyl)-5-(trifluoromethyl)-1H-pyrazol-4-yl)-3-(4-methoxyphenyl)isoxazole-4-carboxylic acid] | 5.00 to 6.00 | 
22 | COc1cccc(Cl)c1-c1noc(-c2cnn(-c3ccccc3Cl)c2C(F)(F)F)c1-c1cnco1 [IB-34, 3-(2-chloro-6-methoxyphenyl)-5-(1-(2-chlorophenyl)-5-(trifluoromethyl)-1H-pyrazol-4-yl)-4-(oxazol-5-yl)isoxazole] |  | pIC50 (PHA-stimulated human PBMC, 48 hours, BrdU, column D, activity classes 1-4, read-out: IC50 (Tcell proliferation)): 6.00 to 7.00
23 | CC(=O)Nc1cccc(-n2ncc(-c3onc(-c4c(F)cccc4Cl)c3C(=O)OC(C)C)c2C(F)(F)F)c1 [Example B-78, isopropyl 5-(1-(3-acetamidophenyl)-5-(trifluoromethyl)-1H-pyrazol-4-yl)-3-(2-chloro-6-fluorophenyl)isoxazole-4-carboxylate] | 6.00 to 7.00 | 
24 | Nc1c(-c2c(F)cccc2Cl)noc1-c1cnn(-c2cccc(F)c2)c1C(F)(F)F [Example 117, 3-(2-chloro-6-fluorophenyl)-5-(1-(3-fluorophenyl)-5-(trifluoromethyl)-1H-pyrazol-4-yl)isoxazol-4-amine] | 6.00 to 7.00 | 
25 | COC(=O)c1c(-c2c(F)cccc2Cl)noc1-c1cnn(-c2ccccc2F)c1C(F)(F)F [Example 1, methyl 3-(2-chloro-6-fluorophenyl)-5-(1-(2-fluorophenyl)-5-(trifluoromethyl)-1H-pyrazol-4-yl)isoxazole-4-carboxylate] | 7.00 to 8.00 | 
26 | COC(=O)c1c(-c2c(F)cccc2Cl)noc1-c1cnn(-c2cc(Cl)cc(Cl)c2)c1C(F)(F)F [Example 68, methyl 3-(2-chloro-6-fluorophenyl)-5-(1-(3,5-dichlorophenyl)-5-(trifluoromethyl)-1H-pyrazol-4-yl)isoxazole-4-carboxylate] | 7.00 to 8.00 | 
27 | COC(=O)c1c(-c2ccccc2)noc1-c1cnn(-c2ccc(OC(F)(F)F)cc2)c1C(F)(F)F [Example 74, methyl 3-phenyl-5-(1-(4-(trifluoromethoxy)phenyl)-5-(trifluoromethyl)-1H-pyrazol-4-yl)isoxazole-4-carboxylate] | 5.00 to 6.00 | 
28 | CC(C)NS(=O)(=O)c1cccc(-n2ncc(-c3onc(-c4c(F)cccc4Cl)c3C(=O)OC(C)C)c2C(F)(F)F)c1 [Example B-79, isopropyl 3-(2-chloro-6-fluorophenyl)-5-(1-(3-(N-isopropylsulfamoyl)phenyl)-5-(trifluoromethyl)-1H-pyrazol-4-yl)isoxazole-4-carboxylate] | 6.00 to 7.00 | 
29 | CC(C)OC(=O)c1c(-c2c(F)cccc2Cl)noc1-c1cnn(-c2ccccc2Cl)c1C(F)(F)F [Example B-60] | 5.00 to 6.00 | 
30 | COC(=O)c1c(-c2ccc(OC)cc2)noc1-c1cnn(-c2cccc(F)c2)c1C(F)(F)F [Example 107, methyl 5-(1-(3-fluorophenyl)-5-(trifluoromethyl)-1H-pyrazol-4-yl)-3-(4-methoxyphenyl)isoxazole-4-carboxylate] | 5.00 to 6.00 | 
